The values below come from patent US20230081426A1, “COMPOUNDS AND METHODS FOR KRAS MODULATION AND INDICATIONS THEREFOR” (Plexxikon Inc., priority 2020, published 2023).

For assay [1], the target named is T1, G12D-mutant human KRAS (amino acid residues 1-188) (Homo sapiens, UniProt P01116, G12D).
T1 construct: G12D or G12C-mutant human KRAS (amino acid residues 1-188) with FLAG tag; made in house; host or cells: E. coli
The assay can be described thus: KRAS Binding Disruption Assay (AlphaScreen; biotinylated KRpep-2d analogue or RAF1-RBD), G12D. Particulars: KRAS G12D; geometric mean; read-out: KRAS GMean IC50 (uM) MUTATION: G12D. A digest of the protocol: (§1)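 AlphaScreen readout: signal falls as compound displaces biotinylated KRpep-2d analogue or RAF1-RBD from mutant KRAS. Both partners at 5-20 nM, 1 h binding at 25° C, then 10 μg/mL Anti-Flag acceptor and streptavidin donor beads for 1 h. IC50 by nonlinear regression of % inhibition.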

Assay [2] addresses T2, G12C-mutant human KRAS (amino acid residues 1-188) (Homo sapiens, UniProt P01116, G12C).
T2 construct: G12D or G12C-mutant human KRAS (amino acid residues 1-188) with FLAG tag; made in house; host or cells: E. coli
In words: KRAS Binding Disruption Assay (AlphaScreen; biotinylated KRpep-2d analogue or RAF1-RBD), G12C. Conditions: geometric mean, read-out: KRAS GMean IC50 (uM) MUTATION: G12C. A digest of the protocol: as §1

In general, IC50 refers to the concentration that inhibits the measured activity by half.

T1 sequence (P01116 1-188 isoform P01116-2 G12D): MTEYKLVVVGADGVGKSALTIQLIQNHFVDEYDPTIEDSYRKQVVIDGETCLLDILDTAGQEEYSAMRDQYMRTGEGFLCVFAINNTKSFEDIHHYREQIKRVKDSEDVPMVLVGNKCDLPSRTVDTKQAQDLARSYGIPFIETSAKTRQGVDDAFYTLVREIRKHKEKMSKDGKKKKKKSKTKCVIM
T2 sequence (P01116 1-188 isoform P01116-2 G12C): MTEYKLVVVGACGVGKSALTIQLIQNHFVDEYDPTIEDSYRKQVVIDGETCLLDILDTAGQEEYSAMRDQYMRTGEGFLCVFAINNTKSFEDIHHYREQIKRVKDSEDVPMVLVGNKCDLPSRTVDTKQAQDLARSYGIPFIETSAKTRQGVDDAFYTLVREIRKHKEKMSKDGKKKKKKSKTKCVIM

As to `OCC1(CO)CN(c2nc(N3C[C@H]4CC[C@@H](C3)N4)c3ccc(-c4cc(O)cc5ccccc45)c(F)c3n2)C1` [P-0686, (1-(4-((1R,5S)-3,8-diazabicyclo[3.2.1]octan-3-yl)-8-fluoro-7-(3-hydroxynaphthalen-1-yl)quinazolin-2-yl)azetidine-3,3-diyl)dimethanol], the IC50 was 0.0001 to 10 µM in assay [1] and 100 to 1000 µM in assay [2].
The like results for `Oc1cc(-c2ccc3c(N4C[C@H]5CC[C@@H](C4)N5)nc(N4C[C@@H](O)[C@@H](O)C4)nc3c2F)c2ccccc2c1` [P-0687, (3S,4R)-1-(4-((1R,5S)-3,8-diazabicyclo[3.2.1]octan-3-yl)-8-fluoro-7-(3-hydroxynaphthalen-1-yl)quinazolin-2-yl)pyrrolidine-3,4-diol] were, in that order, 0.0001 to 10 µM and 100 to 1000 µM.
As for `Oc1cc(-c2ccc3c(N4CC5CCC(C4)N5)nc(OCC4CCCC4O)nc3c2F)c2ccccc2c1` [P-0688, 4-(4-((1R,5S)-3,8-diazabicyclo[3.2.1]octan-3-yl)-8-fluoro-2-((2-hydroxycyclopentyl)methoxy)quinazo-lin-7-yl)naphthalen-2-ol], the IC50 in assay [1] lay in the range of 0.0001 to 10 µM; in assay [2] it was 10 to 100 µM.
The matching figures for `Oc1cc(-c2ccc3c(N4C[C@H]5CC[C@@H](C4)N5)nc(OCCn4cncn4)nc3c2F)c2ccccc2c1` [P-0689, 4-(2-(2-(1H-1,2,4-triazol-1-yl)ethoxy)-4-((1R,5S)-3,8-diazabicyclo[3.2.1]octan-3-yl)-8-fluoroquinazolin-7-yl)naphthalen-2-]: 0.0001 to 10 µM and 10 to 100 µM.
The like results for `Oc1cc(-c2ccc3c(N4C[C@H]5CC[C@@H](C4)N5)nc(OCCn4cccn4)nc3c2F)c2ccccc2c1` [P-0690, 4-(2-(2-(1H-pyrazol-1-yl)ethoxy)-4-((1R,5S)-3,8-diazabicyclo[3.2.1]octan-3-yl)-8-fluoroquinazolin-7-yl)naphthalen-2-ol] were, in that order, 0.0001 to 10 µM and 10 to 100 µM.
The like results for `Oc1cc(-c2ccc3c(N4C[C@H]5CC[C@@H](C4)N5)nc(OCCn4cccc4)nc3c2F)c2ccccc2c1` [P-0691, 4-(2-(2-(1H-pyrrol-1-yl)ethoxy)-4-((1R,5S)-3,8-diazabicyclo[3.2.1]octan-3-yl)-8-fluoroquinazolin-7-yl)naphthalen-2-ol] were, in that order, 0.0001 to 10 µM and 10 to 100 µM.
On to `CC(=O)NCCOc1nc(N2C[C@H]3CC[C@@H](C2)N3)c2ccc(-c3cc(O)cc4ccccc34)c(F)c2n1` [P-0692, N-(2-((4-((1R,5S)-3,8-diazabicyclo[3.2.1]octan-3-yl)-8-fluoro-7-(3-hydroxynaphthalen-1-yl)quinazolin-2-yl)oxy)ethyl)acetamide], for which the IC50 in assay [1] was 0.0001 to 10 µM; in assay [2], 10 to 100 µM.
The matching figures for `O=C1CCCN1CCOc1nc(N2C[C@H]3CC[C@@H](C2)N3)c2ccc(-c3cc(O)cc4ccccc34)c(F)c2n1` [P-0693, 1-(2-((4-((1R,5S)-3,8-diazabicyclo[3.2.1]octan-3-yl)-8-fluoro-7-(3-hydroxynaphthalen-1-yl)quinazolin-2-yl)oxy)ethyl)pyrrolidin-2-one]: 0.0001 to 10 µM and 10 to 100 µM.
The like results for `O=C1CCC(=O)N1CCOc1nc(N2C[C@H]3CC[C@@H](C2)N3)c2ccc(-c3cc(O)cc4ccccc34)c(F)c2n1` [P-0694, 1-(2-((4-((1R,5S)-3,8-diazabicyclo[3.2.1]octan-3-yl)-8-fluoro-7-(3-hydroxynaphthalen-1-yl)quinazolin-2-yl)oxy)ethyl)pyrrolidine-2,5-dione] were, in that order, 0.0001 to 10 µM and 10 to 100 µM.
Turning to `Oc1cc(-c2ccc3c(N4C[C@H]5CC[C@@H](C4)N5)nc(OCCN4CCOCC4)nc3c2F)c2ccccc2c1` [P-0695, 4-(4-((1R,5S)-3,8-diazabicyclo[3.2.1]octan-3-yl)-8-fluoro-2-(2-morpholinoethoxy)quinazolin-7-yl)naphthalen-2-ol], the 50% inhibitory concentration (IC50) in assay [1] was in the range of 0.0001 to 10 µM; in assay [2], 10 to 100 µM.
The matching figures for `Oc1cc(-c2ccc3c(N4C[C@H]5CC[C@@H](C4)N5)nc(OCCN4CCCC4)nc3c2F)c2ccccc2c1` [P-0696, 4-(4-((1R,5S)-3,8-diazabicyclo[3.2.1]octan-3-yl)-8-fluoro-2-(2-(pyrrolidin-1-yl)ethoxy)quinazolin-7-yl)naphthalen-2-ol]: 0.0001 to 10 µM and 10 to 100 µM.
The like results for `Fc1c(-c2c[nH]c3cccc(C4CC4)c23)ccc2c(N3C[C@H]4CC[C@@H](C3)N4)nc(OCC34CCCN3CCC4)nc12` [P-0697, 4-((1R,5S)-3,8-diazabicyclo[3.2.1]octan-3-yl)-7-(4-cyclopropyl-1H-indol-3-yl)-8-fluoro-2-((tetrahydro-1H-pyrrolizin-7a(5H)-yl)methoxy)quinazoline] were, in that order, 0.0001 to 10 µM and 0.0001 to 10 µM.
The matching figures for `CCc1cccc2[nH]cc(-c3ccc4c(N5C[C@H]6CC[C@@H](C5)N6)nc(OCC56CCCN5CCC6)nc4c3)c12` [P-0698, 4-((1R,5S)-3,8-diazabicyclo[3.2.1]octan-3-yl)-7-(4-ethyl-1H-indol-3-yl)-2-((tetrahydro-1H-pyrrolizin-7a(5H)-yl)methoxy)quinazoline]: 0.0001 to 10 µM and 10 to 100 µM.
Turning to `CCc1cccc2[nH]cc(-c3ccc4c(N5C[C@H]6CC[C@@H](C5)N6)nc(OCC56CCCN5CCC6)nc4c3F)c12` [P-0699, 4-((1R,5S)-3,8-diazabicyclo[3.2.1]octan-3-yl)-7-(4-ethyl-1H-indol-3-yl)-8-fluoro-2-((tetrahydro-1H-pyrrolizin-7a(5H)-yl)methoxy)quinazoline], the IC50 in assay [1] and in assay [2] was 0.0001 to 10 µM throughout.
Turning to `Clc1cccc2[nH]cc(-c3ccc4c(N5C[C@H]6CC[C@@H](C5)N6)nc(OCC56CCCN5CCC6)nc4c3)c12` [P-0700, 4-((1R,5S)-3,8-diazabicyclo[3.2.1]octan-3-yl)-7-(4-chloro-1H-indol-3-yl)-2-((tetrahydro-1H-pyrrolizin-7a(5H)-yl)methoxy)quinazoline], the results for the IC50 in assay [1] and in assay [2] were 0.0001 to 10 µM and 10 to 100 µM, respectively.
The like results for `Oc1cc(-c2ccc3c(N4C[C@H]5CC[C@@H](C4)N5)nc(NCC4CCOCC4)nc3c2F)c2ccccc2c1` [P-0701, 4-(4-((1R,5S)-3,8-diazabicyclo[3.2.1]octan-3-yl)-8-fluoro-2-(((tetrahydro-2H-pyran-4-yl)methyl)amino)quinazolin-7-yl)naphthalen-2-ol] were, in that order, 0.0001 to 10 µM and 100 to 1000 µM.
The like results for `CS(=O)(=O)NC1CN(c2nc(N3C[C@H]4CC[C@@H](C3)N4)c3ccc(-c4cc(O)cc5ccccc45)c(F)c3n2)C1` [P-0702, N-(1-(4-((1R,5S)-3,8-diazabicyclo[3.2.1]octan-3-yl)-8-fluoro-7-(3-hydroxynaphthalen-1-yl)quinazolin-2-yl)azetidin-3-yl)methanesulfonamide] were, in that order, 0.0001 to 10 µM and 10 to 100 µM.
The matching figures for `Oc1cc(-c2ccc3c(N4C[C@H]5CC[C@@H](C4)N5)nc(N4CC(N5CCOCC5)C4)nc3c2F)c2ccccc2c1` [P-0703, 4-(4-((1R,5S)-3,8-diazabicyclo[3.2.1]octan-3-yl)-8-fluoro-2-(3-morpholinoazetidin-1-yl)quinazolin-7-yl)naphthalen-2-ol]: 0.0001 to 10 µM and 10 to 100 µM.
As to `CN(C)C1CCN(c2nc(N3C[C@H]4CC[C@@H](C3)N4)c3ccc(-c4cc(O)cc5ccccc45)c(F)c3n2)C1` (stereo partly drawn) [P-0704, 4-(4-((1R,5S)-3,8-diazabicyclo[3.2.1]octan-3-yl)-2-(3-(dimethylamino)pyrrolidin-1-yl)-8-fluoroquinazolin-7-yl)naphthalen-2-ol], the IC50 lay in the range of 0.0001 to 10 µM in assay [1] and 10 to 100 µM in assay [2].
On to `CN1CCC2CN(c3nc(N4C[C@H]5CC[C@@H](C4)N5)c4ccc(-c5cc(O)cc6ccccc56)c(F)c4n3)CC21` (stereo partly drawn) [P-0705, 4-(4-((1R,5S)-3,8-diazabicyclo[3.2.1]octan-3-yl)-8-fluoro-2-(1-methylhexahydropyrrolo[3,4-b]pyrrol-5(1H)-yl)quinazolin-7-yl)naphthalen-2-ol], for which the values for the 50% inhibitory concentration (IC50) in assay [1] and in assay [2] were 0.0001 to 10 µM and 10 to 100 µM, respectively.
The like results for `Oc1cc(-c2ccc3c(N4C[C@H]5CC[C@@H](C4)N5)nc(N4CC(O)(C(F)(F)F)C4)nc3c2F)c2ccccc2c1` [P-0706, 1-(4-((1R,5S)-3,8-diazabicyclo[3.2.1]octan-3-yl)-8-fluoro-7-(3-hydroxynaphthalen-1-yl)quinazolin-2-yl)-3-(trifluoromethyl)azetidin-3-ol] were, in that order, 0.0001 to 10 µM and 100 to 1000 µM.
As to `CCc1c(F)ccc2[nH]cc(-c3ccc4c(N5C[C@H]6CC[C@@H](C5)N6)nc(OCC56CCCN5CCC6)nc4c3F)c12` [P-0709, 4-((1R,5S)-3,8-diazabicyclo[3.2.1]octan-3-yl)-7-(4-ethyl-5-fluoro-1H-indol-3-yl)-8-fluoro-2-((tetrahydro-1H-pyrrolizin-7a(5H)-yl)methoxy)quinazoline], the IC50 in assay [1] and in assay [2] was 0.0001 to 10 µM each time.
As for `CCc1c(F)ccc2[nH]cc(-c3c(F)cc4c(N5C[C@H]6CC[C@@H](C5)N6)nc(OCC56CCCN5CCC6)nc4c3F)c12` [P-0710, 4-((1R,5S)-3,8-diazabicyclo[3.2.1]octan-3-yl)-7-(4-ethyl-5-fluoro-1H-indol-3-yl)-6,8-difluoro-2-((tetrahydro-1H-pyrrolizin-7a(5H)-yl)methoxy)quinazoline], the half-inhibitory concentration (IC50) in assay [1] and in assay [2] was 0.0001 to 10 µM each time.
For `FC(F)(F)c1cccc2[nH]cc(-c3ccc4c(N5C[C@H]6CC[C@@H](C5)N6)nc(OCC56CCCN5CCC6)nc4c3)c12` [P-0711, 4-((1R,5S)-3,8-diazabicyclo[3.2.1]octan-3-yl)-2-((tetrahydro-1H-pyrrolizin-7a(5H)-yl)methoxy)-7-(4-(trifluoromethyl)-1H-indol-3-yl)quinazoline], the IC50 in assay [1] and in assay [2] was 0.0001 to 10 µM in each case.
